Columns and labels:
secPHEX = target: T1, secPHEX (Homo sapiens, UniProt P78562); experiment: secPHEX activity with NEP-specific substrate and inhibitor; type: biochemical; settings: thiorphan 10^−6 M, 10 μM substrate, 30 minutes
T1 construct: pure soluble form of PHEX (secPHEX); made in house
T1 sequence (P78562 46-749 limits assumed): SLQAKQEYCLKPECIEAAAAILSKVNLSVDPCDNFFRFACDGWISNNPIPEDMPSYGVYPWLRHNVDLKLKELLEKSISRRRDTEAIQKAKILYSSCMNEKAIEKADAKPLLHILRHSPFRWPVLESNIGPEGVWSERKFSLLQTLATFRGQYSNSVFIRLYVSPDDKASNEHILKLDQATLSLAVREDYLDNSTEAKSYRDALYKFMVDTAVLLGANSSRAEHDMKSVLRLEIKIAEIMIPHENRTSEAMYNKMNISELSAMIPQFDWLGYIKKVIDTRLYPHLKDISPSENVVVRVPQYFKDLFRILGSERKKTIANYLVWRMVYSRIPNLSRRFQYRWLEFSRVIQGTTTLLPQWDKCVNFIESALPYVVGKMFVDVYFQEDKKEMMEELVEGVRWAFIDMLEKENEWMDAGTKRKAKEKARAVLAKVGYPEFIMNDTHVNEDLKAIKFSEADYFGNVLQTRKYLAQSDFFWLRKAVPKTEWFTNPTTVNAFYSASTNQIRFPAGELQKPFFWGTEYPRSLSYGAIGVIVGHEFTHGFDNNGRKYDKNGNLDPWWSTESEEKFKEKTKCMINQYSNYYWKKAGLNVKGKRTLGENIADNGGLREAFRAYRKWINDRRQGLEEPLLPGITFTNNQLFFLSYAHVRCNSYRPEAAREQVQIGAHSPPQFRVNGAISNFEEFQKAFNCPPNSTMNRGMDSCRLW
Experimental: (§1) FIG. 4 graphically illustrates the activity of PHEX in the presence of NEP-specific substrate and inhibitor. NEP, secPHEX and membrane-bound PHEX (mPHEX) activities were measured after 30 minutes of incubation in presence of either 10 μM Abz-DRRL-EDDnp (SEQ ID NO:8) (A) or 10 μM Abz-GFSDYK(Dnp)-OH (SEQ ID NO:3) (B). Fluorescence detection (AFU) at γem=420 nm and γex=320 nm was determined as described under the heading “Experimental Procedures” below. When present, thiorphan, a NEP-specific inhibitor, was at a concentration of 10^−6 M. Data are a compilation of three different experiments;
(§2) The activities of membrane-bound PHEX and secPHEX were also compared with the NEP-specific substrate Abz-DRRL-EDDnp (SEQ ID NO:8) (46).

NEP = NEP activity with NEP-specific substrate and inhibitor; type: biochemical; settings: thiorphan 10^−6 M, 10 μM Abz-DRRL-EDDnp, 30 minutes
Experimental: as §1
The human recombinant secPHEX was obtained following the procedure previously described (17, WO 00/50580). Purified secPHEX concentration was determined using the Bradford method (DC protein assay kit; Bio-Rad, Mississauga, ON, Canada). Membrane-bound recombinant human PHEX was expressed in LLC-PK1 cells (17, (WO 00/50580)) and membranes were prepared essentially as described by Guo et al. (34). Briefly, transfected cells resuspended in lysis buffer (150 mM NaCl, 20 mM Tris.HCl, pH 7.6) were disrupted by sonication. […] Insoluble material was pelleted by centrifugation at 10,000 g for 15 min and protein concentrations of the supernatant determined using the Bradford method described above. PHEX amounts were evaluated by immunoblotting as described previously (17). […]

[1] = target: T2, membrane-bound PHEX (mPHEX) (Homo sapiens, UniProt P78562); experiment: Membrane-bound PHEX activity with NEP-specific substrate and inhibitor; type: biochemical; settings: thiorphan 10^−6 M, 10 μM substrate, 30 minutes
T2 construct: expressed in transfected cells; host or cells: LLC-PK1 (porcine kidney cells)
Experimental: as §1, §2

PHEX = target: T3, PHEX (Homo sapiens, UniProt P78562); settings: applicants previous observation (17); cited from earlier work
T3 sequence (P78562 1-749): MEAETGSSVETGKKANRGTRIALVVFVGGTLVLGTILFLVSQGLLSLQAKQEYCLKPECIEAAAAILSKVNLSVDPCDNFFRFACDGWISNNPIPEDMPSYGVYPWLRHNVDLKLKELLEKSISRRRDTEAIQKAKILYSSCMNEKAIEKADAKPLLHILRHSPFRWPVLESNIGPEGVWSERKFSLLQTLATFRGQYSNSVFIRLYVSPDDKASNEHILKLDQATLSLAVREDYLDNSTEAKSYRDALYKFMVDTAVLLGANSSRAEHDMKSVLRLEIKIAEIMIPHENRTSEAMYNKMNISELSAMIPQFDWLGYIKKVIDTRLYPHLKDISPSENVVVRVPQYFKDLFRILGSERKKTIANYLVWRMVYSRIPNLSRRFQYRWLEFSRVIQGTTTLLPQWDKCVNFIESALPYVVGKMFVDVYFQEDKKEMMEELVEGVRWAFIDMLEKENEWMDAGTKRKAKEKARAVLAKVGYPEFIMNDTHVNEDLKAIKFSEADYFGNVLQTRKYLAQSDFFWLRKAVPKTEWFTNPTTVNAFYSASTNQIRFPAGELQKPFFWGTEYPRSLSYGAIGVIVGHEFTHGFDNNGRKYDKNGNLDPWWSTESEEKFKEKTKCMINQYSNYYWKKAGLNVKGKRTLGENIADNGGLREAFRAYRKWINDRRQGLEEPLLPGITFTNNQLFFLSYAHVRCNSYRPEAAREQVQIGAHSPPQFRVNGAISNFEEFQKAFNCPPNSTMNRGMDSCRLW

Compound	inhibition of cleavage of Abz-GFSDYK(Dnp)-OH (secPHEX)	inhibition of NEP activity (NEP)	inhibition of cleavage of Abz-GFSDYK(Dnp)-OH [1]	cleavage by PHEX (PHEX)
O=C(O)CNC(=O)C(CS)Cc1ccccc1 (stereo not shown) [thiorphan]	did not prevent cleavage	completely inhibited	did not prevent cleavage	
substance P				could not cleave
